What was measured:
[1] = liver microsomal metabolic stability, mouse; conditions: Fu and RB assumed to be 1
Method: (§1) Hepatic Microsomal Metabolic Stability
(§2) A13bGa1 was co-incubated with the mouse, rat, canine, monkey and human […] and the incubation medium at a final drug concentration of 1 μM in the incubation system for 60 minutes. Samples were taken and analyzed at time points 0, 15, 30, 45 and 60 minutes during the incubation. The reaction was terminated by adding an amount of acetonitrile solution containing the internal standard. […] The residual percentage, half-life, intrinsic clearance, amplified clearance, hepatic clearance and hepatic extraction ratio were determined. The entire experiment was performed in triplicate. All data calculations were performed by Microsoft Excel software. Peak areas were detected by extracting the ionic spectrum. The in vitro half-life (t1/2) of the parent compound was detected by fitting the natural logarithm of the percentage elimination of the parent compound linearly to time.
(§3) The in vitro intrinsic clearance (in μL/min/mg protein) was calculated using the following equation: in vitro CLint=kV/N
(§4) The amplified clearance (in mL/min/kg) was calculated using the following equation: Amplified CLint=kV/N×the amplification factor
(§5) The hepatic clearance (in mL/min/kg) was calculated using the following equation: The predicted hepatic CLH=(Q×Fu/RB×the amplified CLint)/(Q+Fu/RB×the amplified CLint) • V=the incubation volume per well (0.2 mL); • N=the total amount of protein (mg) • Q=the hepatic blood flow (mL/min/kg) • Fu=the plasma free rate (assumed to be 1) • RB=the whole blood partition coefficient (assumed to be 1)
(§6) The hepatic uptake rate was calculated using the following equation:
(§7) The hepatic extraction ratio (ER)=(the predicted hepatic CLH)/Q

[2] = liver microsomal metabolic stability, monkey; conditions: Fu and RB assumed to be 1
Method: as §1, §2, §3, §4, §5, §6, §7

[3] = liver microsomal metabolic stability, human; conditions: Fu and RB assumed to be 1
Method: as §1, §2, §3, §4, §5, §6, §7

[4] = liver microsomal metabolic stability, canine; conditions: canine; Fu and RB assumed to be 1
Method: as §1, §2, §3, §4, §5, §6, §7

[5] = liver microsomal metabolic stability, rat; conditions: Fu and RB assumed to be 1
Method: as §1, §2, §3, §4, §5, §6, §7

[6] = tested on: A549 cells (human non-small cell lung cancer cell), induced senescent with Cisplatin; assay: in vitro killing of induced senescent A549 cells (CCK-8); format: cell-based; conditions: induced senescent A549 cell model, FIG. 1A
From the text: A. The killing results of some selected compounds in the in vitro compound library screening on the induced senescent A549 cell model. Wherein, MZ-1, dBET6, ARV-825, I-BET726, I-BET151, and INCB057643 are all BET inhibitors; A1331852 and A1155463 are novel Bcl-xL inhibitors; Dasatinib, Quercetin, Fisetin, Curcumin are the familiar active drugs or natural products.
B. Comparison of the killing effects of three Bcl-xL inhibitors on the induced senescent A549 cell model. A549 represents the normal uninduced A549 cell group; and A549-CDDP represents the senescent A549 cell group induced with Cisplatin (CDDP) in vitro.
(§8) Induction of the Cellular Senescence

non-senescent A549 cells = assay: cell killing activity assay, non-senescent A549 cells (Example 7); format: cell-based, human; conditions: non-senescent A549, highest concentration (25 μM)
Method: as §8
(§9) Cell Killing Activity Assay
(§10) Preparation of the cell plates: The non-senescent, and the induced senescent HEF cells and A549 cells were taken respectively, digested with trypsin, and centrifuged at 1000 rmp for 5 minutes. The supernatants were removed, and the cells were resuspended in fresh DMEM medium containing 10% foetal bovine serum for counting. The cell density was adjusted so that the density of the non-senescent cells was at 4000 cells/100 μL and the density of the senescent cells was at 7000 cells/100 μL. The cell suspension was added to the 96-well transparent cell culture plates at 100 μL per well. […]
(§11) Formulation of the drug concentration gradients: After the cells adhered to the wall on the second day, the small molecule compounds (d-12, d-11, and d-4) to be tested for activity are ready to be added. […]
(§12) Detection of the cell survival after the drug treatment using the CCK-8 method: Three days after the addition of the drug, the well plate was removed, the supernatant was discarded, and 100 μL of the pre-prepared CCK-8 working solution was added to each well. […] The plate was taken out to determine the absorbance value (OD value) of each well at the wavelength of 450 nm. The cell viability in each experimental group was calculated. […]

senescent HEF cells = assay: cell killing activity assay, senescent HEF cells (Example 7); format: cell-based, human; conditions: HEF-induced senescence model, three days, CCK-8, FIG. 7
Method: as §8, §9, §10, §11, §12

senescent A549 cells = assay: cell killing activity assay, senescent A549 cells (Example 7); format: cell-based, human; conditions: for selective killing of the senescent cells: A549-induced senescence model, three days, CCK-8, FIG. 7
Method: as §8, §9
Preparation of the cell plates: The non-senescent, and the induced senescent HEF cells and A549 cells were taken respectively, digested with trypsin, and centrifuged at 1000 rmp for 5 minutes. The supernatants were removed, and the cells were resuspended in fresh DMEM medium containing 10% foetal bovine serum for counting. The cell density was adjusted so that the density of the non-senescent cells was at 4000 cells/100 μL and the density of the senescent cells was at 7000 cells/100 μL. The cell suspension was added to the 96-well transparent cell culture plates at 100 μL per well. Note that the edge wells of the 96-well plate were not used for the test wells, and 300 μL PBS is added separately to reduce the medium evaporation. The cell-spread 96-well plates were put back into the incubator at 37 °C for the overnight incubation until the cells adhered to the wall.
Formulation of the drug concentration gradients: After the cells adhered to the wall on the second day, the small molecule compounds (d-12, d-11, and d-4) to be tested for activity are ready to be added. […] 3 parallel replicate wells were set up for each test drug concentration. The 96-well plate was put back into the incubator at 37 °C, and the cell survival was tested after three days.
Detection of the cell survival after the drug treatment using the CCK-8 method: Three days after the addition of the drug, the well plate was removed, the supernatant was discarded, and 100 μL of the pre-prepared CCK-8 working solution was added to each well. The CCK-8 working solution was obtained by diluting the CCK8 stock solution (C0041, Beyotime) with the serum-free DMEM medium in 10-fold volume. The 96-well plate added with the CCK-8 working solution was put back to the incubator at 37 °C and incubated for 0.5-2 hours. The plate was taken out to determine the absorbance value (OD value) of each well at the wavelength of 450 nm. The cell viability in each experimental group was calculated. […]

non-senescent HEF cells = assay: cell killing activity assay, non-senescent HEF cells (Example 7); format: cell-based, human; conditions: highest concentration (25 μM)
Method: as §8, §9, §10, §11, §12

[7] = tested on: senescent cells (A549 and HEF); assay: cell killing activity assay, senescent A549 and HEF cell models (Example 7); format: cell-based, human; conditions: FIG. 7
Method: as §8, §9, §10, §11, §12

In the case of `O=c1ccc2ccc(O)cc2o1` [7-hydroxycoumarin, reference compound], the “The predicted intrinsic hepatic clearance Clint” value [1] is reported as 87.82 mL/min/kg, the “The predicted intrinsic hepatic clearance Clint” value [2] is reported as 42.08 mL/min/kg and the “The predicted intrinsic hepatic clearance Clint” value [3] is reported as 20.16 mL/min/kg. The “The predicted intrinsic hepatic clearance Clint” value [4] was 30.44 mL/min/kg and the “The predicted intrinsic hepatic clearance Clint” value [5] was 52.33 mL/min/kg.

With `Cc1sc2c(c1C)C(c1ccc(Cl)cc1)=N[C@@H](CC(=O)Nc1ccc(OCCOCCOCCOCCNc3cccc4c3C(=O)N(C3CCC(=O)NC3=O)C4=O)cc1)c1nnc(C)n1-2` (stereo partly shown) [ARV825] the “senescent cell killing activity and selectivity, compound screening” value [6] was “better in vitro killing activity”.

For `CN(C)CC#Cc1ccc(OCCCc2sc(N3CCc4cccc(C(=O)Nc5nc6ccccc6s5)c4C3)nc2C(=O)O)c(F)c1` [Compound A1155463], the “senescent cell killing activity and selectivity, compound screening” value [6] was “good senescent cell killing activity and selectivity in vitro”.

With `Cc1ncsc1-c1ccc(CNC(=O)[C@@H]2C[C@@H](O)CN2C(=O)[C@@H](NC(=O)COCCOCCOCCNC(=O)C[C@@H]2N=C(c3ccc(Cl)cc3)c3c(sc(C)c3C)-n3c(C)nnc32)C(C)(C)C)cc1` [MZ1] the “senescent cell killing activity and selectivity, compound screening” value [6] was “better in vitro killing activity”.

With `CC(=O)OC[C@H]1O[C@@H](Oc2ccc(C(Cc3cn(CCCN4CCOCC4)nn3)OC(=O)c3nc(N4CCc5cccc(C(=O)Nc6nc7ccccc7s6)c5C4)ccc3-c3cnn(CC45CC6CC(CC(C6)C4)C5)c3C)cc2[N+](=O)[O-])[C@H](OC(C)=O)[C@@H](OC(C)=O)[C@H]1OC(C)=O` (stereo partly drawn) [d-11] the “killing of the non-senescent cells” value (non-senescent A549 cells) was “none of the three molecules killed the non-senescent cells”, the “selective killing of the senescent cells” value (senescent HEF cells) was “selective killing of the senescent cells” and the “selective killing of the senescent cells” value (senescent A549 cells) was “selective killing of the senescent cells”. For the same compound, the “killing of the non-senescent cells” value (non-senescent HEF cells) was “none of the three molecules killed the non-senescent cells”.

For `Cc1c(-c2ccc(N3CCc4cccc(C(=O)Nc5nc6ccccc6s5)c4C3)nc2C(=O)OC(Cc2cn(CCCN3CCOCC3)nn2)c2ccc(O[C@@H]3O[C@H](CO)[C@H](O)[C@H](O)[C@H]3O)c([N+](=O)[O-])c2)cnn1CC12CC3CC(CC(C3)C1)C2` (stereo partly drawn) [d-12], the “killing of the non-senescent cells” value (non-senescent A549 cells) was “none of the three molecules killed the non-senescent cells”, the “selective killing of the senescent cells” value (senescent HEF cells) was “selective killing of the senescent cells” and the “selective killing of the senescent cells” value (senescent A549 cells) was “selective killing of the senescent cells”. The IC50 (senescent A549 cells; Homo sapiens, 72 h, Cisplatin-induced senescent A549, three days, CCK-8) was ~6.9 µM, the “relative activity in killing the senescent cells among the three molecules” value [7] was “relatively more active in killing the senescent cells” and the “killing of the non-senescent cells” value (non-senescent HEF cells) was “none of the three molecules killed the non-senescent cells”.

With `Cc1sc2c(c1C)C(c1ccc(Cl)cc1)=N[C@@H](CC(=O)NCCCCCCCCNC(=O)COc1cccc3c1C(=O)N(C1CCC(=O)NC1=O)C3=O)c1nnc(C)n1-2` (stereo partly shown) [dBET6] the “senescent cell killing activity and selectivity, compound screening” value [6] was “better in vitro killing activity”.
